Test results as given in ChEMBL document CHEMBL1201862, “PubChem BioAssay data set” (2004).
Values belong to the compound of their own block, whether it stands above or below them. Calls of active or inactive are those of the source.

Assays:
[1] = test system: INS1; test: INS-1E survival protection against cytokine death – cell-based, luminescence, retest, dose response (AID 449756); type: functional; details: Rattus norvegicus;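 note: cell death triggered by IL-1 beta plus TNF-alpha plus IFN-gamma mixture; protective hits raise ATP signal compared with cytokine alone wells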
[2] = decrease of insulin promoter-GFP reporter – imaging, high-content screening, mouse beta cells (AID 1628); type: functional; details: MIN6
[3] = MIN6 cell viability loss – mouse insulinoma, cytotoxicity control, dose response (AID 2122); type: functional;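 note: confirmatory high-throughput counterscreen run to flag cytotoxic compounds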
[4] = target: Mu-type opioid receptor (Homo sapiens, UniProt P35372); test: (§1) Counterscreen for agonists of heterodimerization of the mu 1 (OPRM1) and delta 1 (OPRD1) opioid receptors: Luminescence-based cell-based high throughput dose response assay to identify agonists of OPRM1 homodimerization.; type: functional
[5] = target: 5-hydroxytryptamine receptor 5A (Homo sapiens, UniProt P47898); test: Counterscreen for agonists of OPRM1-OPRD1 heterodimerization: luminescence-based cell-based high throughput dose response assay to identify agonists of 5-hydroxytryptamine (serotonin) 5A receptor (HTR5A). [Related pubchem assays (depositor defined):AID504326, AID504355, AID504692, AID504904, AID504905]; type: functional
[6] = target: Delta-type opioid receptor (Homo sapiens, UniProt P41143); test: as §1, with “of OPRD1” for “of OPRM1”, “homodimerization. [Related pubchem assays (depositor defined):AID504326, AID504355, AID504692, AID504904, AID504905]” for “homodimerization.”; type: functional
[7] = target: Trypsin (Sus scrofa, UniProt P00761); test: trypsin protease activity blockade – biochemical, quenched peptide fluorescence, cherry-pick, selectivity assay for Rce1 protease inhibitor project, dose response (AID 488789)
[8] = target: T1, CAAX prenyl protease 2 (Saccharomyces cerevisiae S288c, UniProt Q03530); type: biochemical
T1 sequence (Q03530 whole entry): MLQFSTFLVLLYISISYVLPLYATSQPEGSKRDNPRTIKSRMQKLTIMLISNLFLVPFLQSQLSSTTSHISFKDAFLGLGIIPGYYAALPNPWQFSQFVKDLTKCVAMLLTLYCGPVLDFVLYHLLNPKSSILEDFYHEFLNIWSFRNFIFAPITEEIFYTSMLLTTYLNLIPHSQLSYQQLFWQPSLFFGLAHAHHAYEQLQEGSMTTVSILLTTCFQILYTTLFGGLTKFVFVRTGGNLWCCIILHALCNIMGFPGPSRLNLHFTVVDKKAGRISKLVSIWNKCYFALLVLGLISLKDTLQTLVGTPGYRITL

[9] = test system: Escherichia coli; test: microbe, parasite or virus in culture
[10] = test system: A-375; test: proliferation inhibition in MITF-low A375 cells – cell-based, cherry-pick samples, set 2, counter-screen for MITF modulator project, dose response (AID 540335); type: functional; details: Homo sapiens
[11] = target: T2, Short transient receptor potential channel 4 (Mus musculus, UniProt Q9QUQ5); test: calcium entry via TRPC4 opening agents – cell-based, HEK293 TRPC4/mu-opioid, Fluo-4 calcium, dose response (AID 434937); type: functional
T2 sequence (Q9QUQ5 whole entry): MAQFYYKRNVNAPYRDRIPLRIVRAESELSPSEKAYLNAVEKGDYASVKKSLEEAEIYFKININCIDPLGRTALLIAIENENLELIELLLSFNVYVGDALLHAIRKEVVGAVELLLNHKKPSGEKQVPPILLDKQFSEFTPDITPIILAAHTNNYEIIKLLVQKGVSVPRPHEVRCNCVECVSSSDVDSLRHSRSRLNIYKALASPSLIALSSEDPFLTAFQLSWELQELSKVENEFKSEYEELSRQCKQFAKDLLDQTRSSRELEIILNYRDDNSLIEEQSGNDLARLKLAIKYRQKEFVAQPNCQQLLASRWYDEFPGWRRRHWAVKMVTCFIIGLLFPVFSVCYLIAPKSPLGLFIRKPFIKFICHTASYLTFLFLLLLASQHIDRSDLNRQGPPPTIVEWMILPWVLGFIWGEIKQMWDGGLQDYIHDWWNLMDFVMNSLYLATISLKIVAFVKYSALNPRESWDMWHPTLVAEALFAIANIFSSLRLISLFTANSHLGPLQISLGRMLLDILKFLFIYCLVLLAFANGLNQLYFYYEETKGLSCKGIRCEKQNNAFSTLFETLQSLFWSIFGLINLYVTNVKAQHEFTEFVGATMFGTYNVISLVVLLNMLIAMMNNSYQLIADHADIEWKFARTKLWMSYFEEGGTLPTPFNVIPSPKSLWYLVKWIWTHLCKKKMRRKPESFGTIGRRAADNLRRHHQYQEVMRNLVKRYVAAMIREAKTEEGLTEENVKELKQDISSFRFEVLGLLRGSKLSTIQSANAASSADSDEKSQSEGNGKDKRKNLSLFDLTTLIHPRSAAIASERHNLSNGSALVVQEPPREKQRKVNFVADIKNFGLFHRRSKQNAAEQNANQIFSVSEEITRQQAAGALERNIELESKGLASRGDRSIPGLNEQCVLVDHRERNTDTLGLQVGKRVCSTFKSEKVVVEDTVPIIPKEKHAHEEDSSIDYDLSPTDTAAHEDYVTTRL

[12] = target: T3, Microphthalmia-associated transcription factor (Homo sapiens, UniProt O75030); test: reducers of TRPM1 reporter luminescence, concentration series – cell-based, SK-MEL-5, cherry-picked, set 3, MITF inhibitor project, dose response (AID 493073); type: functional;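 note: SK-MEL-5 melanoma cells with luciferase driven by the MITF target TRPM1 promoter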
T3 sequence (O75030 whole entry): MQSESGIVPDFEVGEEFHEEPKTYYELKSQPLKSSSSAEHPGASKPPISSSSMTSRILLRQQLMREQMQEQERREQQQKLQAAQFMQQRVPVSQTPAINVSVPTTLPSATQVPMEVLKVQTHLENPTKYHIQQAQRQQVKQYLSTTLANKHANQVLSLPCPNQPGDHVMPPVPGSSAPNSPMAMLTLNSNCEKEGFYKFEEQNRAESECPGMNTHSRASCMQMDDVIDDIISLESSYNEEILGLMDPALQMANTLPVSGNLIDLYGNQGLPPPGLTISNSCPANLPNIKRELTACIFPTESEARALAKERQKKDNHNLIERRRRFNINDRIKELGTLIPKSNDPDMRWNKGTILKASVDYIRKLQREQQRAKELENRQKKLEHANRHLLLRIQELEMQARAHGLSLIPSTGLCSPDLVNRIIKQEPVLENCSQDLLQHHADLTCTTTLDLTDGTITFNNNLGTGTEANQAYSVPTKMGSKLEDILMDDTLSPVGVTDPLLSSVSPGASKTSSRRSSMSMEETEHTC

[13] = test system: A-375; test: MITF: Counter assay: A375 proliferation Measured in Cell-Based System Using Plate Reader - 2084-03_Inhibitor_Dose_DryPowder_Activity. [Related pubchem assays (depositor defined):AID488944]; type: functional; details: Homo sapiens
[14] = target: T4, Galanin receptor type 3 (Homo sapiens, UniProt O60755); test: Fluorescence-based cell-based primary high throughput dose response assay to identify antagonists of the Galanin Receptor 3 (GalR3).; type: functional
T4 sequence (O60755 whole entry): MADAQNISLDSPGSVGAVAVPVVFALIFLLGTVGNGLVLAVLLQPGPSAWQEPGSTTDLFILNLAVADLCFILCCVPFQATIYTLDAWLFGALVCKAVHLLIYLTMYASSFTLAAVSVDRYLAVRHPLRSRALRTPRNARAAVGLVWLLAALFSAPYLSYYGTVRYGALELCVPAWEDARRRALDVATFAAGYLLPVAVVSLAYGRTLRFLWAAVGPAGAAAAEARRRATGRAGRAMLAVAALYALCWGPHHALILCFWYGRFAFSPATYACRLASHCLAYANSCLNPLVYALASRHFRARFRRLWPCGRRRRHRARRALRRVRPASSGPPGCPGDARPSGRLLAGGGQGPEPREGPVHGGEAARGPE

[15] = cells; type: functional, cell-based; details: HEK-CNG
[16] = NIH-3T3 fibroblast cytotoxicity, dose response, cytotoxicity control, cell-based, fluorescence, Alamar Blue, secondary assay (AID 2327); type: functional;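 note: NIH-3T3 mouse fibroblasts cultured with fluconazole at 8 µg/mL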
[17] = fluconazole-exposed Candida albicans growth modulators – fluorescence, retest, confirmation (AID 2467); type: functional, cell-based
[18] = target: T5, Type-1 angiotensin II receptor (Homo sapiens, UniProt P30556); test: antagonism of angiotensin II type 1 receptor – cell-based, uHTS hits, selectivity assay for APJ receptor antagonist project, dose response (AID 463214); type: functional;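 note: antagonist potency against angiotensin II stimulated AT1 response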
T5 sequence (P30556 whole entry): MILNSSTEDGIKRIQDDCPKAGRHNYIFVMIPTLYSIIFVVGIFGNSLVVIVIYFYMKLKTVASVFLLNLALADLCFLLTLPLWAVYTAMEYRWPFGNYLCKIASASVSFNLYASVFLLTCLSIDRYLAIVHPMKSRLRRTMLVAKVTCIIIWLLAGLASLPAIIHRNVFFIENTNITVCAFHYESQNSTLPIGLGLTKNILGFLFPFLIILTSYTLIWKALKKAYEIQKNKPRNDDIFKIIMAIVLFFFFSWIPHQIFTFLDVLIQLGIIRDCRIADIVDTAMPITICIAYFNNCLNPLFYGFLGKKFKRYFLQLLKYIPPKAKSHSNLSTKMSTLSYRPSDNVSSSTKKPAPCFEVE

[19] = target: Beta-galactosidase (Escherichia coli, UniProt Q8VNN2); test: PubChem AID 485352; type: functional
[20] = target: T6, CAAX prenyl protease 2 (Homo sapiens, UniProt Q9Y256); test: inhibition of Ras-converting CAAX protease Rce1 – biochemical, yeast membranes, quenched-peptide fluorescence, cherry-pick, dose response (AID 588849)
T6 sequence (Q9Y256 whole entry): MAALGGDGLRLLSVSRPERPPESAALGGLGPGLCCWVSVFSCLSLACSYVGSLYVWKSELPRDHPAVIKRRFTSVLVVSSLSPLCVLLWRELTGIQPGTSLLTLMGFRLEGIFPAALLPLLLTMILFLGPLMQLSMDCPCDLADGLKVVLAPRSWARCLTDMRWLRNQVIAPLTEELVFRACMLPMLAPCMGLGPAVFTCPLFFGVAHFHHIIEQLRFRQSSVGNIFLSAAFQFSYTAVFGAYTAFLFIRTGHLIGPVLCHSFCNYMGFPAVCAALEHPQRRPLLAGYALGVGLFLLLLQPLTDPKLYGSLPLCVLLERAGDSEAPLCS

Sequence of 5-hydroxytryptamine receptor 5A (P47898 whole entry): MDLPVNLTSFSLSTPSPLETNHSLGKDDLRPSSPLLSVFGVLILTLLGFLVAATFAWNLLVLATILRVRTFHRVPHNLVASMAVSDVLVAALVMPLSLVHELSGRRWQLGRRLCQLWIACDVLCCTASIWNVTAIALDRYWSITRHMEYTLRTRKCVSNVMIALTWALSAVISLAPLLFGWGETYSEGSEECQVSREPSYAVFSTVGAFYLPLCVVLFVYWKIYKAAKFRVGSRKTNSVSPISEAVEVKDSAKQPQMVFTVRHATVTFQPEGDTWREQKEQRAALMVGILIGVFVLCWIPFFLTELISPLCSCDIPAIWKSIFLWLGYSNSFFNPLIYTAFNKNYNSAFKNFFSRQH
Sequence of Delta-type opioid receptor (P41143 whole entry): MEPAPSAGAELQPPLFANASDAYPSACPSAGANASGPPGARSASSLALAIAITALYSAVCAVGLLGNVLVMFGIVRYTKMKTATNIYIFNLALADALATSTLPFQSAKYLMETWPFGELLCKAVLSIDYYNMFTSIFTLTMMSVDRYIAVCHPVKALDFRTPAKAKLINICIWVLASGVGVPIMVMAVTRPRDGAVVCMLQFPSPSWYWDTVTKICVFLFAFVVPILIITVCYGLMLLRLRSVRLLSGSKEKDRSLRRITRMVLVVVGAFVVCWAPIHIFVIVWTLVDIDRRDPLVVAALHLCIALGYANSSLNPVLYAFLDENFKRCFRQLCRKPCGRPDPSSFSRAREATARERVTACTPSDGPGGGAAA
Sequence of Mu-type opioid receptor (P35372 whole entry): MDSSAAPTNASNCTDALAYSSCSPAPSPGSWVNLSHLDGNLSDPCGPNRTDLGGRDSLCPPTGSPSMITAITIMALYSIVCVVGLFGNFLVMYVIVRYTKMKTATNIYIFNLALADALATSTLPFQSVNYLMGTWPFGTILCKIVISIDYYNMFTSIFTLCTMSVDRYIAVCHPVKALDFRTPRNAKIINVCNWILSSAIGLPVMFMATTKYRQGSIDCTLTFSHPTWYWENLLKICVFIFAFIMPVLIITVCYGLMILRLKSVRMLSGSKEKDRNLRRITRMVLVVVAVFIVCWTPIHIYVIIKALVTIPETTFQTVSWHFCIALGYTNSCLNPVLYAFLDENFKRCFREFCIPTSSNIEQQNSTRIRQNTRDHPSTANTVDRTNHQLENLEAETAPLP
Sequence of Trypsin (P00761 whole entry): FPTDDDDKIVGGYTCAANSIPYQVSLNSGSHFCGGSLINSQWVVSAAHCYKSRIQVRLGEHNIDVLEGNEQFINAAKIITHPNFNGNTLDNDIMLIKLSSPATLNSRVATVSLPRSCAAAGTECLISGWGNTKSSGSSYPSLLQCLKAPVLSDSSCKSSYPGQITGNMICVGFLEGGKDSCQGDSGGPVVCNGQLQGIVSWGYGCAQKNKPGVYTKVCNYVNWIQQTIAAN
Sequence of Beta-galactosidase (Q8VNN2 whole entry): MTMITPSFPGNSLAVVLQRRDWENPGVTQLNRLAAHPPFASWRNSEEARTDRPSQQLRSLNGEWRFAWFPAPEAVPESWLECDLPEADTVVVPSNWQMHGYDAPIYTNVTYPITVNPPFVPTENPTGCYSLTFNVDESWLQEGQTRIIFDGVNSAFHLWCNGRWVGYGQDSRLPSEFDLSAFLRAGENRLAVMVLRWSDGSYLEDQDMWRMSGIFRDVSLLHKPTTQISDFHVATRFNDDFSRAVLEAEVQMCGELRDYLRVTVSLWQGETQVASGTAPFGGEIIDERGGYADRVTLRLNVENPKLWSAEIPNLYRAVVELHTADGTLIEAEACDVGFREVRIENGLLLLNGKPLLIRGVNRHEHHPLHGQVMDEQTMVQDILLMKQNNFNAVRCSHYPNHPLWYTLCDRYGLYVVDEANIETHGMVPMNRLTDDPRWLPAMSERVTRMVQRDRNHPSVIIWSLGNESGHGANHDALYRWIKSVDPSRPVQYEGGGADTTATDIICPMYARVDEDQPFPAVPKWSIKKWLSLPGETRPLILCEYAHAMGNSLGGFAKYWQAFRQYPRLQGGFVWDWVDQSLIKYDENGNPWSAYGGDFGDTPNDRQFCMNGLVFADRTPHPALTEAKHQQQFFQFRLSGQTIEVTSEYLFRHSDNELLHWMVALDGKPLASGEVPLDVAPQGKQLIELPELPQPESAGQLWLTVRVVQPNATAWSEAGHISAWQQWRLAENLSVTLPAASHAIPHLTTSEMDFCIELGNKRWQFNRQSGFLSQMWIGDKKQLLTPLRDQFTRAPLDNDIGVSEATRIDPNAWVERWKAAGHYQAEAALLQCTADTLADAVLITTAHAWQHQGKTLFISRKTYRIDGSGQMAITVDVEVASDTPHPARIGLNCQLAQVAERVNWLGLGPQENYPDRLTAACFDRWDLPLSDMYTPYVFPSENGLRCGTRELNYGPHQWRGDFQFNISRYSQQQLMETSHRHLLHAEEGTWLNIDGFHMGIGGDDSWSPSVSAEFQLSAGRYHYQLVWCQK

SMILES: Cn1cc(CNCc2ccc(OC(F)(F)F)cc2)c(-c2ccc3c(c2)OCCO3)n1
AC50 [1]: 1.04 µM (active) | IC50 [2]: 0.272 µM (active) | IC50 [3]: < 0.25 µM (active)

SMILES: CCOC(=O)C1(Cc2ccccc2)CCN(Cc2cccn2-c2nccs2)CC1
EC50 [4]: > 92.5 µM (inactive) | EC50 [5]: > 92.5 µM (inactive) | EC50 [6]: > 92.5 µM (inactive)

SMILES: CC1(c2ccncc2)Nc2ccccc2-c2nc3ccccc3n21 (configuration not stated)
AC50 [7]: 9.63 µM (active) | AC50 [8]: 68 µM (active)

SMILES: CC(C)(C)c1ccc(C(=O)O)c(C(=O)c2ccc(C(=O)O)cc2)c1
AC50 [9]: 49.3 µM (active)

SMILES: CN(C)CCCN(C(=O)c1ccc(Cl)s1)c1nc2cc3c(cc2s1)OCO3
AC50 [10]: > 11 µM (active) | EC50 [11]: 5.96 µM (active) | AC50 [12]: 22.9 µM (active) | AC50 [13]: > 11 µM (active)

SMILES: CC(C)(C)c1ccc(-c2c[n+](-c3ccc(Br)cc3)c3n2CCCS3)cc1
AC50 [10]: 34.1 µM (active) | IC50 [14]: 10.1 µM (inactive) | EC50 [15]: > 29.9 µM (inactive) | AC50 [12]: 3.2 µM (active) | EC50 [16]: > 160 µM (inactive) | EC50 [17]: 0.199 µM (active)

SMILES: COc1ccc(-c2nc3n(c2C)Cc2ccccc2-3)cc1
AC50 [13]: 30.1 µM (active)

SMILES: Cc1nn(Cc2ccccc2)c(C)c1C(=O)NCc1ccccc1
AC50 [9]: 42.7 µM (active)

Further lines, results first:

IC50 [18]: 15 µM (active) | EC50 [19]: > 40 µM (inactive)
SMILES: O=C(COC(=O)c1ccncc1)c1ccc(Cl)c(Cl)c1

IC50 [18]: 33 µM (not active) | EC50 [19]: > 40 µM (inactive)
SMILES: Cc1ccc(C(=O)COC(=O)CNS(=O)(=O)c2ccccc2)cc1[N+](=O)[O-]

EC50 [4]: > 92.5 µM (inactive) | EC50 [5]: > 92.5 µM (inactive) | EC50 [11]: 0.0533 µM (active) | EC50 [6]: 31 µM (inactive)
SMILES: CC(=O)NC(CC(=O)NCC(c1ccco1)N(C)C)c1ccccc1 (configuration not stated)

EC50 [4]: > 92.5 µM (inactive) | EC50 [5]: > 92.5 µM (inactive) | EC50 [6]: > 92.5 µM (inactive)
SMILES: O=C(Nc1ccccc1)c1ccc(NC2CCCCC2)c(S(=O)(=O)N2CCOCC2)c1

AC50 [20]: 5.17 µM (active) | AC50 [8]: 7.99 µM (active)
SMILES: CN(C)c1ccc(/C=N/NC(=O)CNC(=O)c2ccco2)cc1

AC50 [7]: 5.99 µM (active) | AC50 [20]: 2.64 µM (active) | AC50 [8]: 6.98 µM (active)
SMILES: CN(c1ccccc1)c1ccc(/C=N/NC(=O)CC#N)cc1
